In patent US20200022370A1, “MICROBIOCIDAL OXADIAZOLE DERIVATIVES” (SYNGENTA PARTICIPATIONS AG, priority 2016, published 2020):

Experiments:
Phakopsora pachyrhizi = Phakopsora pachyrhizi / soybean / leaf disc preventative (Asian soybean rust); format: in vivo; conditions: foliar, 200 ppm in the applied formulation, soybean leaf disks, inoculated one day after application, vs untreated, 12 to 14 days after application, read-out: disease control
Outline: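 Soybean leaf discs on water agar sprayed with formulated compound diluted in water, then inoculated one day later with spore suspension on the lower surface. Held 24-36 h dark at 20 °C, 75% rh, then 12 h light/day; percent disease control versus untreated scored 12-14 days after application.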

Uromyces viciae-fabae = Uromyces viciae-fabae / field bean / leaf disc preventative (faba-bean rust); format: in vivo; conditions: foliar, 288 h, 100 ppm in the applied formulation, field bean leaf discs, inoculated two hours after application, vs untreated, 12 days after application, read-out: disease control
Protocol: Leaf disks or leaf segments of various plant species are cut from plants grown in a greenhouse. The cut leaf disks or segments are placed in multiwell plates (24-well format) onto water agar. The leaf disks are sprayed with a test solution before (preventative) or after (curative) inoculation. Compounds to be tested are prepared as DMSO solutions (max. 10 mg/ml) which are diluted to the appropriate concentration with 0.025% Tween20 just before spraying. The inoculated leaf disks or segments are incubated under defined conditions (temperature, relative humidity, light, etc.) according to the respective test system. A single evaluation of disease level is carried out 3 to 14 days after inoculation, depending on the pathosystem. Percent disease control relative to the untreated check leaf disks or segments is then calculated.
Example 5: Fungicidal Activity Against Uromyces viciae-fabael Field Bean/Leaf Disc Preventative (Faba-Bean Rust)
Field bean leaf discs are placed on water agar in multiwell plates (96-well format) and 10 μl of the Formulated test compound diluted in acetone and a spreader pipetted onto the leaf disc. Two hours after application leaf discs are inoculated by spraying a spore suspension on the lower leaf surface. The leaf discs are incubated in a climate cabinet at 22° C. with 18 hour day and 70% relative humidity. The activity of a compound is assessed as percent disease control compared to untreated when an appropriate level of disease damage appears in untreated check leaf disks (12 days after application).
The following compounds at 100 ppm in the applied Formulation give at least 80% disease control in this test when compared to untreated control leaf discs under the same conditions, which show extensive disease development.

[1] = test system: Glomerella lacenarium (Colletotrichum lacenarium); assay: Glomerella lacenarium (Colletotrichum lacenarium) liquid culture / cucumber / preventative (anthracnose); format: cell-based; conditions: 20 ppm, liquid culture in PDB, 24° C., inhibition of growth measured photometrically 3 to 4 days after application, vs untreated, read-out: disease control
Outline: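 Cryopreserved conidia in potato dextrose broth were added to test compound in a 96-well microtiter plate and incubated at 24 °C. Growth inhibition read photometrically 3–4 days after application, as percent activity versus untreated check.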

[2] = test system: Puccinia recondita f. Sp. Tritici; assay: Puccinia recondita f. sp. tritici / wheat / leaf disc preventative (brown rust); format: in vivo; conditions: foliar, 200 ppm in the applied formulation, wheat leaf segments cv. Kanzler, inoculated 1 day after application, vs untreated, 7 to 9 days after application, read-out: disease control
Outline: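 Preventative leaf-segment test on wheat cv. Kanzler: formulated compound diluted in water was sprayed onto segments on agar, with spore inoculation 1 day later. Incubated at 19° C, 75% rh, 12 h light/12 h dark; percent disease control versus untreated scored 7 to 9 days after application.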

[3] = test system: Puccinia recondita f. Sp. Tritici; assay: Puccinia recondita f. sp. tritici / wheat / leaf disc curative (brown rust); format: in vivo; conditions: foliar, 200 ppm in the applied formulation, wheat leaf segments cv. Kanzler, compound applied 1 day after inoculation, vs untreated, 6 to 8 days after application, read-out: disease control
Outline: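 Wheat leaf segments (cv. Kanzler) on agar inoculated with brown rust spores, held dark at 19 °C/75% RH, then sprayed 1 day post-inoculation with formulated compound diluted in water (curative). Incubated at 19 °C/75% RH, 12 h light/12 h dark; percent disease control versus untreated scored 6–8 days after application.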

Row | Compound | pest or weed control at 200 ppm (Phakopsora pachyrhizi) | pest or weed control at 100 ppm (Uromyces viciae-fabae) | inhibition of growth at 20 ppm [1] | pest or weed control at 200 ppm [2] | pest or weed control at 200 ppm [3] | melting point
1 | O=C(Nc1ccc(-c2noc(C(F)(F)F)n2)cc1)c1cncc(N2CCOCC2)n1 [Compound 1.2, 6-morpholino-N-[4-[5-(trifluoromethyl)-1,2,4-oxadiazol-3-yl]phenyl]pyrazine-2-carboxamide] | ≥ 80% | ≥ 80% |  |  |  | 
2 | CC12CCC(C(=O)Nc3ccc(-c4noc(C(F)(F)F)n4)cc3)(OC1=O)C2(C)C (stereo not drawn) [Compound 1.4, 1,7,7-trimethyl-2-oxo-N-[4-[5-(trifluoromethyl)-1,2,4-oxadiazol-3-yl]phenyl]-3-oxabicyclo[2.2.1] heptane-4-carboxamide] | ≥ 80% | ≥ 80% | ≥ 80% |  |  | 
3 | C#CC(C)(C)C(=O)Nc1ccc(-c2noc(C(F)(F)F)n2)cc1 [Compound 1.5, 2,2-dimethyl-N-[4-[5-(trifluoromethyl)-1,2,4-oxadiazol-3-yl]phenyl]but-3-ynamide] | ≥ 80% | ≥ 80% | ≥ 80% | ≥ 80% | ≥ 80% | 
4 | COc1cc(C(=O)Nc2ccc(-c3noc(C(F)(F)F)n3)cc2)cc(OC)c1OC [Compound 1.6, 3,4,5-trimethoxy-N-[4-[5-(trifluoromethyl)-1,2,4-oxadiazol-3-yl]phenyl]benzamide] | ≥ 80% | ≥ 80% |  | ≥ 80% |  | 
5 | COc1cc(CCC(=O)Nc2ccc(-c3noc(C(F)(F)F)n3)cc2)cc(OC)c1OC [Compound 1.13, N-[4-[5-(trifluoromethyl)-1,2,4-oxadiazol-3-yl]phenyl]-3-(3,4,5-trimethoxyphenyl) propanamide] |  | ≥ 80% | ≥ 80% | ≥ 80% |  | 
6 | O=C(Nc1ccc(-c2noc(C(F)(F)F)n2)cc1)C(F)c1ccccc1 (stereo not drawn) [Compound 1.16, 2-fluoro-2-phenyl-N-[4-[5-(trifluoromethyl)-1,2,4-oxadiazol-3-yl]phenyl]acetamide] | ≥ 80% | ≥ 80% | ≥ 80% | ≥ 80% |  | 
7 | O=C(CCC(F)(F)F)Nc1ccc(-c2noc(C(F)(F)F)n2)cc1 [Compound 1.20, 4,4,4-trifluoro-N-[4-[5-(trifluoromethyl)-1,2,4-oxadiazol-3-yl]phenyl]butanamide] | ≥ 80% | ≥ 80% | ≥ 80% | ≥ 80% |  | 
8 | O=C(Cn1cncn1)Nc1ccc(-c2noc(C(F)(F)F)n2)cc1 [Compound 1.23, 2-(1,2,4-triazol-1-yl)-N-[4-[5-(trifluoromethyl)-1,2,4-oxadiazol-3-yl]phenyl]acetamide] |  | ≥ 80% | ≥ 80% | ≥ 80% |  | 
9 | CC(C)NC(=O)c1c(F)cccc1C(=O)Nc1ccc(-c2noc(C(F)(F)F)n2)cc1 [Compound 1.29, 3-fluoro-N2-isopropyl-N1-[4-[5-(trifluoromethyl)-1,2,4-oxadiazol-3-yl]phenyl] phthalamide] | ≥ 80% | ≥ 80% | ≥ 80% | ≥ 80% |  | 
10 | COC1=CC(=O)CC(C(=O)Nc2ccc(-c3noc(C(F)(F)F)n3)cc2)C1 (stereo not drawn) [Compound 1.31, 3-methoxy-5-oxo-N-[4-[5-(trifluoromethyl)-1,2,4-oxadiazol-3-yl]phenyl]cyclohex-3-ene-1-carboxamide] | ≥ 80% | ≥ 80% | ≥ 80% | ≥ 80% |  | 
11 | CC(C)(C(=O)Nc1ccc(-c2noc(C(F)(F)F)n2)cc1)c1ncc(Cl)cc1Cl [Compound 1.32, 2-(3,5-dichloro-2-pyridyl)-2-methyl-N-[4-[5-(trifluoromethyl)-1,2,4-oxadiazol-3-yl]phenyl] propanamide] |  | ≥ 80% |  | ≥ 80% |  | 
12 | CC(=O)N(C(C)=O)c1ccc(-c2noc(C(F)(F)F)n2)cn1 [Compound 1.45, N-acetyl-N-[5-[5-(trifluoromethyl)-1,2,4-oxadiazol-3-yl]-2-pyridyl]acetamide] | ≥ 80% | ≥ 80% | ≥ 80% | ≥ 80% | ≥ 80% | 
13 | CC(=O)N(CC(=O)NC(C)(C)C)c1ccc(-c2noc(C(F)(F)F)n2)cc1 [Compound 1.56, 2-[N-acetyl-4-[5-(trifluoromethyl)-1,2,4-oxadiazol-3-yl]anilino]-N-tert-butyl-acetamide] |  | ≥ 80% | ≥ 80% | ≥ 80% | ≥ 80% | 
14 | CCC(=O)N(CC(=O)NC(C)(C)C)c1ccc(-c2noc(C(F)(F)F)n2)cc1 [Compound 1.57, N-[2-(tert-butylamino)-2-oxo-ethyl]-N-[4-[5-(trifluoromethyl)-1,2,4-oxadiazol-3-yl]phenyl] propanamide] |  | ≥ 80% | ≥ 80% | ≥ 80% |  | 
15 | COCC(=O)N(CC(=O)NC(C)(C)C)c1ccc(-c2noc(C(F)(F)F)n2)cc1 [Compound 1.58, N-tert-butyl-2-[N-(2-methoxyacetyl)-4-[5-(trifluoromethyl)-1,2,4-oxadiazol-3-yl]anilino]acetamide] |  | ≥ 80% |  | ≥ 80% |  | 
16 | CONC(=O)Nc1ccc(-c2noc(C(F)(F)F)n2)cn1 [Compound 1.63, 1-methoxy-3-[5-[5-(trifluoromethyl)-1,2,4-oxadiazol-3-yl]-2-pyridyl]urea] | ≥ 80% |  | ≥ 80% |  |  | 151 to 154 °C
17 | CON(C)C(=O)Nc1ccc(-c2noc(C(F)(F)F)n2)cn1 [Compound 1.64, 1-methoxy-1-methyl-3-[5-[5-(trifluoromethyl)-1,2,4-oxadiazol-3-yl]-2-pyridyl]urea] |  |  | ≥ 80% | ≥ 80% |  | 83 to 87 °C
18 | CC(C)=CCONC(=O)Nc1ccc(-c2noc(C(F)(F)F)n2)cc1 [Compound 1.66, 1-(3-methylbut-2-enoxy)-3-[4-[5-(trifluoromethyl)-1,2,4-oxadiazol-3-yl]phenyl]urea] |  |  | ≥ 80% | ≥ 80% |  | 118 to 121 °C
19 | CON(CC1CC1)C(=O)Nc1ccc(-c2noc(C(F)(F)F)n2)cc1 [Compound 1.69, 1-(cyclopropylmethyl)-1-methoxy-3-[4-[5-(trifluoromethyl)-1,2,4-oxadiazol-3-yl]phenyl]urea] |  |  | ≥ 80% |  |  | 117 to 120 °C
20 | O=C(NOCc1ccccc1F)Nc1ccc(-c2noc(C(F)(F)F)n2)cc1 [Compound 1.127, 1-[(2-fluorophenyl)methoxy]-3-[4-[5-(trifluoromethyl)-1,2,4-oxadiazol-3-yl]phenyl]urea] |  |  | ≥ 80% |  |  | 140 to 143 °C
21 | CN(C(=O)C1CCC1)c1ccc(-c2noc(C(F)(F)F)n2)cc1 [Compound 2.25, N-methyl-N-[4-[5-(trifluoromethyl)-1,2,4-oxadiazol-3-yl]phenyl]cyclobutane-carboxamide] | ≥ 80% | ≥ 80% | ≥ 80% | ≥ 80% | ≥ 80% | 
22 | CONC(=O)Nc1ccc(-c2noc(C(F)(F)F)n2)cc1 [Compound 2.30, 1-methoxy-3-[4-[5-(trifluoromethyl)-1,2,4-oxadiazol-3-yl]phenyl]urea] |  |  | ≥ 80% | ≥ 80% |  | 152 to 155 °C
